In ChEMBL document CHEMBL1201862, “PubChem BioAssay data set” (2004):
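Assay format: 96-well plates, 48-hour exposure. GI50 is the concentration that inhibits growth by half.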 Calls of active or inactive are those of the source. Rule as the data show it: active = GI50 up to about 1.1 µM and inactive = higher.

Legend:
Experiment in all cases: inhibition of tumour cell growth, NCI panel, 48 h
MDA-MB-435 = system: MDA-MB-435
SNB-75 = system: SNB-75
K562 = system: K562
NCI-H460 = system: NCI-H460
HL-60 = system: HL-60
EKVX = system: EKVX
ACHN = system: ACHN
SF-268 = system: SF-268
KM12 = system: KM12
UO-31 = system: UO-31
SN12C = system: SN12C
786-0 = system: 786-0
MOLT-4 = system: MOLT-4
MDA-MB-231 = system: MDA-MB-231
HCC 2998 = system: HCC 2998
NCI-H226 = system: NCI-H226
NCI-H23 = system: NCI-H23
CAKI-1 = system: CAKI-1
SK-MEL-2 = system: SK-MEL-2

Measured: GI50

CN(C)C12C=CC=CC3=C(c4ccccc4)C(c4ccccc4)=C(c4ccccc4)C31c1ccccc1C2 (centres undefined)
inactive: MDA-MB-435 > 100 µM | SNB-75 > 100 µM | K562 > 100 µM | NCI-H460 > 100 µM | HL-60 > 100 µM | EKVX > 100 µM | ACHN > 100 µM | SF-268 > 100 µM | KM12 > 100 µM | UO-31 > 100 µM | SN12C > 100 µM | 786-0 > 100 µM | MOLT-4 > 100 µM | MDA-MB-231 > 100 µM | HCC 2998 > 100 µM

COc1ccc(S(=O)(=O)Nc2ccc(-c3csc(N4C(=O)/C(=C/c5cccs5)N=C4c4ccccc4)n3)cc2)cc1Cl
inactive: MDA-MB-435 44 µM | SNB-75 44.8 µM | K562 38.7 µM | NCI-H226 65.5 µM | NCI-H460 41.1 µM | HL-60 24.5 µM | NCI-H23 21.5 µM | ACHN 35.4 µM | SF-268 30.5 µM | KM12 49.1 µM | UO-31 28.1 µM | SN12C 66.2 µM | CAKI-1 > 100 µM | SK-MEL-2 40.4 µM | 786-0 57.5 µM | MOLT-4 32.8 µM | MDA-MB-231 32.4 µM | HCC 2998 44.7 µM

COC(=O)c1cc2c(cc1Cl)Sc1nnc(Nc3ccc(C)cc3)n1S2(=O)=O
inactive: MDA-MB-435 7.19 µM | K562 5.13 µM | NCI-H226 12.1 µM | NCI-H460 11.6 µM | HL-60 3.46 µM | NCI-H23 3.61 µM | EKVX 12.9 µM | ACHN 3.48 µM | SF-268 3.6 µM | KM12 5.57 µM | UO-31 10.5 µM | SN12C 18.1 µM | CAKI-1 10.4 µM | SK-MEL-2 2.9 µM | 786-0 7.69 µM | MOLT-4 2.94 µM | MDA-MB-231 10.6 µM | HCC 2998 4.75 µM

Brc1cccc(Nc2ncnc3sc4c(c23)CCC2(C4)OCCO2)c1
inactive: MDA-MB-435 28.2 µM | SNB-75 23.1 µM | NCI-H226 18.6 µM | NCI-H460 33.3 µM | NCI-H23 29.8 µM | EKVX 19.3 µM | ACHN 4.68 µM | SF-268 27.6 µM | KM12 24 µM | UO-31 2.07 µM | SN12C 27.4 µM | CAKI-1 10.5 µM | SK-MEL-2 33 µM | 786-0 25.7 µM | MDA-MB-231 87.1 µM | HCC 2998 23.7 µM

CSc1nc(C)c(CCCl)c(Cl)n1
inactive: MDA-MB-435 34.1 µM | SNB-75 > 100 µM | K562 31.8 µM | NCI-H460 > 100 µM | NCI-H23 > 100 µM | EKVX > 100 µM | ACHN > 100 µM | SF-268 > 100 µM | UO-31 > 100 µM | SN12C 52.6 µM | CAKI-1 > 100 µM | 786-0 > 100 µM | MOLT-4 27.4 µM | MDA-MB-231 > 100 µM | HCC 2998 > 100 µM

O=C(NCCO)c1c(O)c2ccccc2[nH]c1=O
inactive: MDA-MB-435 > 100 µM | SNB-75 > 100 µM | K562 > 100 µM | NCI-H226 > 100 µM | NCI-H460 > 100 µM | HL-60 > 100 µM | NCI-H23 > 100 µM | EKVX 69.5 µM | ACHN > 100 µM | SF-268 > 100 µM | KM12 > 100 µM | UO-31 83.6 µM | SN12C > 100 µM | CAKI-1 > 100 µM | 786-0 > 100 µM | MOLT-4 > 100 µM | MDA-MB-231 > 100 µM | HCC 2998 > 100 µM

COc1ccc(CNC2=N/C(=C\c3ccccc3Cl)C(=O)N2C)cc1
inactive: MDA-MB-435 19 µM | SNB-75 11.8 µM | K562 25.5 µM | NCI-H226 49.2 µM | NCI-H460 30.1 µM | HL-60 25.8 µM | EKVX 28.3 µM | ACHN 29.6 µM | SF-268 45 µM | KM12 20.4 µM | SN12C 19.6 µM | CAKI-1 30.7 µM | SK-MEL-2 19.3 µM | 786-0 19.7 µM | MOLT-4 27.1 µM | MDA-MB-231 26.4 µM | HCC 2998 21.8 µM

Cc1cc(S(=O)(=O)NC2=Nc3cccc4cccc(c34)N2)c(S)cc1Cl
inactive: MDA-MB-435 83.4 µM | SNB-75 > 100 µM | K562 > 100 µM | NCI-H226 > 100 µM | NCI-H460 55.6 µM | HL-60 77.4 µM | EKVX > 100 µM | ACHN > 100 µM | SF-268 > 100 µM | KM12 48.1 µM | UO-31 > 100 µM | CAKI-1 > 100 µM | SK-MEL-2 > 100 µM | 786-0 84.5 µM | MOLT-4 41.6 µM | MDA-MB-231 > 100 µM | HCC 2998 > 100 µM
